pIC50: −log10 of the molar value. Active and inactive are the calls of the source. The calls are words filed in the database; no cut-off is given here.
Legend:
[1] = biological target: T1, DNA topoisomerase 1 (Homo sapiens) (UniProt P11387); assay: Inhibition of recombinant human topoisomerase 1 assessed as relaxation of supercoiled pHOT1 at 10 uM after 30 mins by agarose gel electrophoresis
T1 sequence (whole entry): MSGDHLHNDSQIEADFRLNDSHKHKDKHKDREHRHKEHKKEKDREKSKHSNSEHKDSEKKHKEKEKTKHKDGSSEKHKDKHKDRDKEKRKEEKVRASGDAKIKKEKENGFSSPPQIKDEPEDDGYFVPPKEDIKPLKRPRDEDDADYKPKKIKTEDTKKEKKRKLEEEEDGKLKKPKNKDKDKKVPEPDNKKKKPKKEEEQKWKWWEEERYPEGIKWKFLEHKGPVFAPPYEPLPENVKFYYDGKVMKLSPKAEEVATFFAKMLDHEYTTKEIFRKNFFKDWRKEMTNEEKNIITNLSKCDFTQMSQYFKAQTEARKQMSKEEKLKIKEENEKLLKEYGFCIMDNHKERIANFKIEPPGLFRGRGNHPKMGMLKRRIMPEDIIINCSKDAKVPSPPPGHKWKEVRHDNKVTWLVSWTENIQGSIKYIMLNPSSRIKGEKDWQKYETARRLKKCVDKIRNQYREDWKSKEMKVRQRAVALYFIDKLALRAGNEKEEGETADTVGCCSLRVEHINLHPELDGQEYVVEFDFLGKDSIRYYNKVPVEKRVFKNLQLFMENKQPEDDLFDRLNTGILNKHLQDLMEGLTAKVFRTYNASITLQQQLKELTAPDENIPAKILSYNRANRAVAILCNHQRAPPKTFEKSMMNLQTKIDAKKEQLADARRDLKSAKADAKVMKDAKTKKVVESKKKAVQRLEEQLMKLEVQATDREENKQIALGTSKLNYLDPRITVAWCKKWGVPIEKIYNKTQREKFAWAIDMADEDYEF

[2] = Cytotoxicity against rat R2C cells assessed as growth inhibition by MTT assay; format: functional, cell-based
[3] = Cytotoxicity against human MCF-7 TR1 cells assessed as cell colony formation after 14 days by crystal violet staining-based assay; format: functional; settings: MCF-7 TR1, 336 h
[4] = test system: MCF7; assay: Cytotoxicity against human MCF7 cells assessed as cell viability after 5 days by MTT assay; format: functional, cell-based; settings: MCF7, 120 h
[5] = biological target: DNA topoisomerase 2-alpha (Homo sapiens) (UniProt P11388); settings: 10 uM
Description: Inhibition of human topoisomerase 2 assessed as decatenation of kDNA at 10 uM after 30 mins by agarose gel electrophoresis

[6] = Cytotoxicity against human MCF10A cells assessed as cell viability after 5 days by MTT assay; format: cell-based; settings: MCF-10A, 120 h
[7] = test system: MDA-MB-231; assay: Cytotoxicity against human MDA-MB-231 cells assessed as cell viability after 5 days by MTT assay; format: functional, cell-based; settings: MDA-MB-231, 120 h
[8] = test system: HepG2; assay: Cytotoxicity against human HepG2 cells assessed as growth inhibition by MTT assay; format: functional, cell-based
[9] = biological target: T1, DNA topoisomerase 1 (Homo sapiens); assay: Inhibition of recombinant human topoisomerase 1 assessed as relaxation of supercoiled pHOT1 at 50 uM after 30 mins by agarose gel electrophoresis
[10] = test system: HeLa; assay: Cytotoxicity against human HeLa cells assessed as growth inhibition by MTT assay; format: functional, cell-based
[11] = biological target: DNA topoisomerase 2-alpha (Homo sapiens) (UniProt P11388); settings: 50 uM
Description: Inhibition of human topoisomerase 2 assessed as decatenation of kDNA at 50 uM after 30 mins by agarose gel electrophoresis

[12] = test system: Ishikawa; assay: Cytotoxicity against human Ishikawa cells assessed as growth inhibition by MTT assay; format: functional, cell-based
[13] = test system: MCF-7 TR1; assay: Cytotoxicity against human MCF-7 TR1 cells assessed as reduction of colony formation at 1 uM after 14 days by MTT staining-based anchorage-independant soft agar assay; format: functional, cell-based
[14] = biological target: Cellular tumor antigen p53 (Homo sapiens) (UniProt P04637); assay: Activation of p53 in human MCF7 cells assessed as upregulation of […]/WAF1 mRNA expression at 0.1 uM after 12 hrs by RT-PCR analysis; format: cell-based
[15] = Induction of apoptosis in human MCF10A cells assessed as DNA fragmentation at 1 uM after 48 hrs by DNA laddering assay; format: cell-based; settings: mcf-10a
[16] = biological target: DNA topoisomerase 2-alpha (Homo sapiens) (UniProt P11388); assay: Inhibition of human topoisomerase 2 assessed as decatenation of kDNA after 30 mins by agarose gel electrophoresis
[17] = test system: MCF-7 TR1; assay: Cytotoxicity against human MCF-7 TR1 cells assessed as reduction of cell vitality at 0.1 to 1 uM after 3 to 5 days by MTT assay; format: functional, cell-based
[18] = test system: MDA-MB-231; assay: Induction of apoptosis in human MDA-MB-231 cells assessed as DNA fragmentation at 1 uM after 48 hrs by DNA laddering assay; format: functional, cell-based
[19] = Upregulation of p53 expression in human MCF10A cells at 0.1 uM after 48 hrs by Western blot analysis; format: ADME, cell-based; settings: mcf-10a
[20] = test system: MCF7; assay: Upregulation of p53 mRNA expression in human MCF7 cells at 0.1 to 1 uM after 12 hrs by RT-PCR analysis; format: functional, cell-based
[21] = biological target: Cellular tumor antigen p53 (Homo sapiens) (UniProt P04637); assay: Activation of p53 in human MCF7 cells assessed as upregulation of […]/WAF1 expression after 48 hrs by Western blot analysis; format: cell-based
[22] = test system: MDA-MB-231; assay: Cytotoxicity against human MDA-MB-231 cells assessed as reduction of colony formation at 0.1 uM after 14 days by MTT staining-based anchorage-independant soft agar assay; format: functional, cell-based
[23] = test system: MCF-7 TR1; assay: Induction of apoptosis in human MCF-7 TR1 cells assessed as DNA fragmentation at 1 uM after 48 hrs by DNA laddering analysis; format: functional, cell-based
[24] = biological target: Cellular tumor antigen p53 (Homo sapiens) (UniProt P04637); assay: Activation of p53 in human MCF7 cells assessed as upregulation of […]/WAF1 mRNA expression at 1 uM after 12 hrs by RT-PCR analysis; format: cell-based
[25] = biological target: Cellular tumor antigen p53 (Homo sapiens) (UniProt P04637); assay: Activation of p53 in human MCF7 cells assessed as upregulation of […]/WAF1 gene expression at 1 uM by dual luciferase reporter gene assay in presence of p53 siRNA; format: cell-based
[26] = test system: MCF7; assay: Cytotoxicity against human MCF7 cells assessed as reduction of colony formation at 0.1 uM after 14 days by MTT staining-based anchorage-independant soft agar assay; format: functional, cell-based
[27] = Upregulation of p53 expression in human MCF10A cells at 1 uM after 48 hrs by Western blot analysis; format: ADME, cell-based; settings: mcf-10a
[28] = biological target: Cellular tumor antigen p53 (Homo sapiens) (UniProt P04637); assay: Activation of p53 in human MCF7 cells assessed as upregulation of […]/WAF1 gene expression at 0.1 to 1 uM after 24 hrs by dual luciferase reporter gene assay; format: cell-based
[29] = biological target: Cellular tumor antigen p53 (Homo sapiens) (UniProt P04637); assay: Activation of p53 in human MCF7 cells assessed as upregulation of […]/WAF1 gene expression at 1 uM after 24 hrs by dual luciferase reporter gene assay; format: cell-based
[30] = test system: MCF7; assay: Induction of apoptosis in human MCF7 cells assessed as DNA fragmentation at 1 uM after 48 hrs by DNA laddering assay; format: functional, cell-based
[31] = Upregulation of p53 expression in human MCF-7 TR1 cells at 0.1 uM after 48 hrs by Western blot analysis; format: functional, cell-based
[32] = test system: MDA-MB-231; assay: Upregulation of p53 expression in human MDA-MB-231 cells after 48 hrs by Western blot analysis; format: functional, cell-based
[33] = test system: MCF7; assay: Upregulation of p53 expression in human MCF7 cells after 48 hrs by Western blot analysis; format: functional, cell-based
[34] = biological target: Cellular tumor antigen p53 (Homo sapiens) (UniProt P04637); assay: Activation of p53 in human MDA-MB-231 cells assessed as upregulation of […]/WAF1 mRNA expression at 1 uM after 12 hrs by RT-PCR analysis; format: cell-based
[35] = test system: MCF7; assay: Induction of p53 consensus sequences deficient […]/WAF1 promoter activity in human MCF7 cells at 1 uM after 24 hrs by dual luciferase reporter gene assay; format: cell-based
[36] = test system: MCF7; assay: Induction of p53 consensus sequences deficient […]/WAF1 promoter activity in human MCF7 cells at 0.1 uM after 24 hrs by dual luciferase reporter gene assay; format: cell-based
[37] = biological target: Cellular tumor antigen p53 (Homo sapiens) (UniProt P04637); assay: Activation of p53 in human MCF7 cells assessed as upregulation of […]/WAF1 gene expression at 0.1 uM after 24 hrs by dual luciferase reporter gene assay; format: cell-based
[38] = test system: MDA-MB-231; assay: Cytotoxicity against human MDA-MB-231 cells assessed as reduction of colony formation at 1 uM after 14 days by MTT staining-based anchorage-independant soft agar assay; format: functional, cell-based
[39] = Upregulation of p53 expression in human MCF-7 TR1 cells at 1 uM after 48 hrs by Western blot analysis; format: functional, cell-based
[40] = biological target: Cellular tumor antigen p53 (Homo sapiens) (UniProt P04637); assay: Activation of p53 in human MCF-7 TR1 cells assessed as upregulation of […]/WAF1 gene expression at 1 uM after 48 hrs by Western blot analysis; format: cell-based
[41] = test system: MDA-MB-231; assay: Upregulation of p53 mRNA expression in human MDA-MB-231 cells at 0.1 to 1 uM after 12 hrs by RT-PCR analysis; format: functional, cell-based
[42] = biological target: Cellular tumor antigen p53 (Homo sapiens) (UniProt P04637); assay: Activation of p53 in human MDA-MB-231 cells assessed as upregulation of […]/WAF1 mRNA expression at 0.1 uM after 12 hrs by RT-PCR analysis; format: cell-based
[43] = test system: MCF7; assay: Cytotoxicity against human MCF7 cells assessed as growth inhibition at 1 uM after 5 days by MTT assay relative to vehicle-treated control; format: functional; settings: MCF7, 120 h, read-out: GI
[44] = test system: MCF-7 TR1; assay: Induction of apoptosis in human MCF-7 TR1 cells assessed as PARP proteolysis at 1 uM after 48 hrs by Western blot analysis; format: functional, cell-based
[45] = test system: MCF7; assay: Cytotoxicity against human MCF7 cells assessed as reduction of colony formation at 1 uM after 14 days by MTT staining-based anchorage-independant soft agar assay; format: functional, cell-based
[46] = biological target: Cellular tumor antigen p53 (Homo sapiens) (UniProt P04637); assay: Activation of p53 in human MCF-7 TR1 cells assessed as upregulation of […]/WAF1 gene expression at 0.1 uM after 48 hrs by Western blot analysis; format: cell-based
[47] = test system: MCF7; assay: Induction of apoptosis in human MCF7 cells assessed as PARP proteolysis at 1 uM after 48 hrs by Western blot analysis; format: functional, cell-based
[48] = biological target: Cellular tumor antigen p53 (Homo sapiens) (UniProt P04637); assay: Activation of p53 in human MDA-MB-231 cells assessed as upregulation of […]/WAF1 expression after 48 hrs by Western blot analysis; format: cell-based
[49] = test system: MDA-MB-231; assay: Induction of p53 consensus sequences deficient […]/WAF1 promoter activity in human MDA-MB-231 cells at 0.1 to 1 uM after 24 hrs by dual luciferase reporter gene assay; format: cell-based
[50] = Induction of apoptosis in human MCF10A cells assessed as PARP proteolysis at 1 uM after 48 hrs by Western blot analysis; format: cell-based; settings: mcf-10a
[51] = test system: MDA-MB-231; assay: Cytotoxicity against human MDA-MB-231 cells assessed as growth inhibition at 1 uM after 5 days by MTT assay relative to vehicle-treated control; format: functional; settings: MDA-MB-231, 120 h, read-out: GI
[52] = Cytotoxicity against human MCF10A cells assessed as growth inhibition at 1 uM after 5 days by MTT assay relative to vehicle-treated control; format: cell-based; settings: mcf-10a, 120 h

Sequence of DNA topoisomerase 2-alpha (Homo sapiens) (P11388 whole entry): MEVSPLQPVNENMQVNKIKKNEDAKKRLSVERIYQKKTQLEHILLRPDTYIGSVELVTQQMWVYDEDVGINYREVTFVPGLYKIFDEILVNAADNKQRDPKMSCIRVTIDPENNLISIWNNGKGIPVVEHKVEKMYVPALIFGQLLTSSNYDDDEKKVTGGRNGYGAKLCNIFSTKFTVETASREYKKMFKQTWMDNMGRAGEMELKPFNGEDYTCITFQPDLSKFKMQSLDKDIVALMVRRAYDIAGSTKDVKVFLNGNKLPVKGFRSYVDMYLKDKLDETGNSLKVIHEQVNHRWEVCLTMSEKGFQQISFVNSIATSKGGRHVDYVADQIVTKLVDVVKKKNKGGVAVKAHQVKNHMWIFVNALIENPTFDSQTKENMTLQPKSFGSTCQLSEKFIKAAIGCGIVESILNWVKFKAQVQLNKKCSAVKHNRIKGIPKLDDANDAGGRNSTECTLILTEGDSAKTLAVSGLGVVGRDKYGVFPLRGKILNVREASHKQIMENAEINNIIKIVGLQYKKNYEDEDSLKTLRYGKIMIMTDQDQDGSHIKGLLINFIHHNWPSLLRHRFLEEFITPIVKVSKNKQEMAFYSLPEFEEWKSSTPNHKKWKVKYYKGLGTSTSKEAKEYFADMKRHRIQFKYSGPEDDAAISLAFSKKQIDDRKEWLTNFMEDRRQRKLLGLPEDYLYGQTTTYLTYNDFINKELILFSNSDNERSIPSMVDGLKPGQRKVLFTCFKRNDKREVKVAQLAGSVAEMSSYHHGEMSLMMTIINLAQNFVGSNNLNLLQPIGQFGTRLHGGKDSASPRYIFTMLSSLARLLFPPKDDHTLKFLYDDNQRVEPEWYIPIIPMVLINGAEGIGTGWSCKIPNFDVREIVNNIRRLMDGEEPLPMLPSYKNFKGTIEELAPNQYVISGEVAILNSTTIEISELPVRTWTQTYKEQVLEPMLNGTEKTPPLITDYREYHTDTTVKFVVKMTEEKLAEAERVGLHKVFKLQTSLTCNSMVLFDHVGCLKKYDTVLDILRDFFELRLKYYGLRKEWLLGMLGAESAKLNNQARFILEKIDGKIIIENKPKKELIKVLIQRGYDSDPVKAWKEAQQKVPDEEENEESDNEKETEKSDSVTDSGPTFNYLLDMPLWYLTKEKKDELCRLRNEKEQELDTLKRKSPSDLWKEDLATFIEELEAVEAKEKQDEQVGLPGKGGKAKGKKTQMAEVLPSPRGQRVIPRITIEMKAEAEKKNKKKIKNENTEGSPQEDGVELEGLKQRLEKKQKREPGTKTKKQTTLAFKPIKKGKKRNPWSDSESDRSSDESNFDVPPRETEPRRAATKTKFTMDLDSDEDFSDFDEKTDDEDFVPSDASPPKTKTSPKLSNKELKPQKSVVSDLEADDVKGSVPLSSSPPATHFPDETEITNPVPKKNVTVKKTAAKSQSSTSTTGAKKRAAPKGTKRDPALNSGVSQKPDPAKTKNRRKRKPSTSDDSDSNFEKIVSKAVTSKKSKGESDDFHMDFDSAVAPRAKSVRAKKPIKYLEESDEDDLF
Sequence of Cellular tumor antigen p53 (Homo sapiens) (P04637 whole entry, looked up, the tested form may be a part): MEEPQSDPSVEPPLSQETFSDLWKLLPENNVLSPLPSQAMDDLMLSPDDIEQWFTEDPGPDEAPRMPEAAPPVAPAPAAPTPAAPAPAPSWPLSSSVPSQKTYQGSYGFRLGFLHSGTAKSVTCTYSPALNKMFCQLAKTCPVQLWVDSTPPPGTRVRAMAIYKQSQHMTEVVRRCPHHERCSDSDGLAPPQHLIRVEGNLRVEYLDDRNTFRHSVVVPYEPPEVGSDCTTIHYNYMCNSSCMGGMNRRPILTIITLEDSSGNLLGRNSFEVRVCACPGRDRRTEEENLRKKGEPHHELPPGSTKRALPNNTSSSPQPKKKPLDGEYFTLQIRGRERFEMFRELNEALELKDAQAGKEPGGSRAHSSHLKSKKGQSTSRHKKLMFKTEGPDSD

SMILES: Cc1c2ccncc2c(C)c2c1[nH]c1ccccc12 [ELLIPTECINE]
- inhibition [1]: Active
- pIC50 [2]: 5.70
- pIC50 [3]: 5.76
- pIC50 [4]: 5.90
- inhibition [5]: Active
- pIC50 [6]: 5.92
- pIC50 [7]: 5.74
- pIC50 [8]: 5.54
- inhibition [9]: Active
- pIC50 [10]: 6.00
- inhibition [11]: Active
- pIC50 [12]: 5.82

SMILES: CCCN(CCC)c1nc2c(O)cc3c4ccccc4oc3c2c(=O)[nH]1
- inhibition [1]: inactive
- Activity [13]: Active
- Activity [14]: Active
- pIC50 [2]: 5.92
- Activity [15]: Non-toxic
- pIC50 [3]: 6.00
- inhibition [16]: Dose-dependent effect
- Activity [17]: Active
- pIC50 [4]: 6.18
- Activity [18]: Active
- Activity [19]: Non-toxic
- Activity [20]: inactive
- Activity [21]: Dose-dependent effect
- Activity [22]: Active
- Activity [23]: Active
- Activity [24]: Active
- Activity [25]: inactive
- Activity [26]: Active
- pIC50 [6]: 4.48
- pIC50 [7]: 6.19
- Activity [27]: Non-toxic
- pIC50 [8]: 6.05
- Activity [28]: inactive
- Activity [29]: Active
- Activity [30]: Active
- Activity [31]: Active
- Activity [32]: Dose-dependent effect
- Activity [33]: Dose-dependent effect
- Activity [34]: Active
- Activity [35]: inactive
- Activity [36]: inactive
- Activity [37]: Active
- Activity [38]: Active
- Activity [39]: Active
- Activity [40]: Active
- inhibition [9]: inactive
- pIC50 [10]: 6.15
- Activity [41]: inactive
- Activity [42]: Active
- pIC50 [12]: 6.01
- inhibition of growth at 1 µM [43]: 58%
- Activity [44]: Active
- Activity [45]: Active
- Activity [46]: Active
- Activity [47]: inactive
- Activity [48]: Dose-dependent effect
- Activity [49]: Active
- Activity [50]: Non-toxic
- inhibition of growth at 1 µM [51]: 60%
- Activity [52]: Non-toxic

Source: ChEMBL document CHEMBL3758098, “3-(Dipropylamino)-5-hydroxybenzofuro[2,3-f]quinazolin-1(2H)-one (DPA-HBFQ-1) plays an inhibitory role on breast cancer cell growth and progression” (Eur J Med Chem, 2016)
